Results on one compound are retold here after PMC10739250 (ACS Bio & Med Chem Au, 2023).

Data set [1] is described as follows: physchem. The note with it: thermodynamic from solid.
For data set [2] the following is noted: human, pH 7.4.
Data set [3] is described as follows: in vitro. The note with it: hamster, hepatocytes.
The nature of data set [4]: in vitro. The following applies: human, hepatocytes.
The conditions of data set [5]: rat hepatocytes, 0.5 ×10^6 cells/mL.
For data set [6], the system named is SARS-CoV-2/Canada/VIDO 01/2020. Format: cell-based. The following applies: read-out: EC50 in the presence of the efflux inhibitor CP-100356.
The nature of data set [7]: in vitro. The note with it: human, microsomes.
Data set [8] can be described thus: physchem.

In brackets after ≈: the same amount, converted by molar mass.

Broadly, the thermodynamic solubility is the concentration in solution at equilibrium with solid. What is called half-life is the time in which the quantity being followed falls by half. A higher half-life goes with slow decline. A word on the EC50: it is the concentration that produces a half-maximal response. One may read the logD as lipophilicity at a set pH, counting ionised and neutral species. Take `CC(C)(C)[C@H](NC(=O)C(F)(F)F)C(=O)N1C[C@H]2[C@@H]([C@H]1C(=O)N[C@H](C#N)C[C@@H]1CCNC1=O)C2(C)C` [Compound 1, nirmatrelvir]: the thermodynamic solubility in “physchem [1]” was 4.79 mM (≈ 2390 µg/mL). In data set [2], the “amount of metabolite Major” value is 100; the “amount of metabolite Minor A” value was determined as 5.1 ± 0.8; the “amount of metabolite Minor B” value stood at 2.3 ± 0.4; the “increase of minor metabolites A and B on deuteration” value stood at 210%. Besides, the “minor sites (Minor A and Minor B), share of total metabolites” value in data set [2] is “less than 10%”. Moreover, the half-life in the data set “in vitro [3]” is 57.4 min. This compound also registered a half-life in the data set “in vitro [4]” above 434 min. Further, in data set [5], the “hepatocyte stability, t1/2, rat” value is reported as 244.7 min. Besides, the EC50 in data set [6] stood at 200 nM. Further, the half-life in the data set “in vitro [7]” came out at 40.2 min. In “physchem [8]”, this compound displayed a logD of 1.86.
